The NIST ThermoML archive (doi:10.1021/je060419q)

Settings: Transpiration method

CC(O)CC(C)(C)O (stereo not drawn) [2-methyl-2,4-pentanediol]
Liquid
Settings	vapor or sublimation pressure [kPa]
285.2 K	0.0025
287.9 K	0.00333
291.2 K	0.00474
294.2 K	0.00648
297.2 K	0.00858
300.2 K	0.01147
303.2 K	0.01471
306.5 K	0.01997
309.4 K	0.02565
312.5 K	0.03274
315.2 K	0.04092
318.2 K	0.05208
321.2 K	0.06475
323.3 K	0.07752
326.3 K	0.09448
329.4 K	0.1239

CC(O)CC(C)O (stereo not drawn) [2,4-pentanediol]
Liquid
Settings	vapor or sublimation pressure [kPa]
297.2 K	0.0048
300.2 K	0.00645
303.2 K	0.0085
306.2 K	0.0111
309.2 K	0.01453
312.2 K	0.01892
315.3 K	0.0239
318.4 K	0.03119
321.4 K	0.04095
324.4 K	0.05507
327.5 K	0.07024
330.5 K	0.08735
333.4 K	0.1096
336.5 K	0.1376
339.2 K	0.1648
344.4 K	0.2419
347.3 K	0.2929

CC(O)CCO (stereo not drawn) [1,3-butanediol]
Liquid
Settings	vapor or sublimation pressure [kPa]
288.3 K	0.00139
290.3 K	0.00168
292.9 K	0.00235
303.5 K	0.00651
308.3 K	0.00994
311.3 K	0.01301
314.3 K	0.01723
317.3 K	0.02182
320.3 K	0.02852
323.3 K	0.03664
326.3 K	0.04618
329.3 K	0.05855
332.3 K	0.07427

OCCCO [propan-1,3-diol]
Liquid
Settings	vapor or sublimation pressure [kPa]
293.5 K	0.00186
303.2 K	0.00447
309.3 K	0.00788
312.2 K	0.00997
315.3 K	0.01329
318.4 K	0.01659
321.3 K	0.02168
324.3 K	0.02764
327.3 K	0.03558
330.3 K	0.04372
333.5 K	0.05556
336.4 K	0.06842
339.4 K	0.08464
342.3 K	0.1053

CC(C)(CO)CO [2,2-dimethyl-1,3-propanediol]
Settings	vapor or sublimation pressure [kPa]
283.9 K, Crystal 2	0.00029
288.5 K, Crystal 2	0.00052
291.2 K, Crystal 2	0.00074
295.2 K, Crystal 2	0.00119
298.4 K, Crystal 2	0.00174
301.7 K, Crystal 2	0.00261
304.7 K, Crystal 2	0.00367
307.9 K, Crystal 2	0.00535
309.4 K, Crystal 2	0.00615
311.3 K, Crystal 2	0.00735
314.3 K, Crystal 1	0.01057
317.3 K, Crystal 1	0.01416
320.2 K, Crystal 1	0.01849
323.4 K, Crystal 1	0.02447
326.4 K, Crystal 1	0.03147
329.4 K, Crystal 1	0.04056
332.3 K, Crystal 1	0.05153
335.3 K, Crystal 1	0.06721
338.2 K, Crystal 1	0.08442
341.2 K, Crystal 1	0.1056
344.2 K, Crystal 1	0.1314
347.2 K, Crystal 1	0.1654

CC(CO)CO [2-methyl-1,3-propanediol]
Liquid
Settings	vapor or sublimation pressure [kPa]
297.3 K	0.00204
300.4 K	0.00285
303.4 K	0.00364
306.4 K	0.0049
309.4 K	0.00661
312.4 K	0.00841
312.5 K	0.00861
314.5 K	0.00996
316.4 K	0.01205
318.5 K	0.0141
319.5 K	0.01551
321.4 K	0.01842
322.5 K	0.01984
323.5 K	0.02169
323.6 K	0.02202
326.4 K	0.02689
326.6 K	0.02817
328.5 K	0.03259
328.6 K	0.03396
331.4 K	0.04115
333.4 K	0.0469
336.3 K	0.05931
338.6 K	0.07262
341.4 K	0.08656
342.6 K	0.09448
343.5 K	0.1068
347.6 K	0.1379
349.3 K	0.1589
352.5 K	0.1921
355.4 K	0.2407
357.5 K	0.2643
